Test results published in US20260297081A1, “COMPOUNDS AND METHODS OF TREATING CANCERS” (Cullgen Inc., priority 2023, published 2026).

The compounds below were run on MCF7 cells (assay: Anti-proliferation (viability) of MCF7 cells (Table 7, FIG. 2B)). Details: Homo sapiens, MCF7, MCF7 cells, 3-6 days, 10-point serial dilution; read-out: GI IC50 in MCF-7.
Assay type: cell-based

SMILES | IC50
CNc1ccc(C(=O)Nc2ccc(N(C)C)nn2)c(NC2CCC3(CC(NC(=O)CN4CCN(c5ccc(Nc6ncc7c(C)c(C(C)=O)c(=O)n(C8CCCC8)c7n6)nc5)CC4)C3)C2)n1 (stereo not drawn) [CPD-416, 2-((2-(2-(4-(6-((6-acetyl-8-cyclopentyl-5-methyl-7-oxo-7,8-dihydropyrido[2,3-d]pyrimidin-2-yl)amino)pyridin-3-yl)piperazin-1-yl)acetamido)spiro[3.4]octan-6-yl)amino)-N-(6-(dimethylamino)pyridazin-3-yl)-6-(methylamino)nicotinamide] | > 100 nM
CC(=O)c1c(C)c2cnc(Nc3ccc(CC4CCN(CC(=O)N5CCC(Nc6nc(NC(C)C)ccc6C(=O)Nc6ccc(N(C)C)nn6)CC5)CC4)cn3)nc2n(C2CCCC2)c1=O [CPD-386, 2-((1-(2-(4-((6-((6-acetyl-8-cyclopentyl-5-methyl-7-oxo-7,8-dihydropyrido[2,3-d]pyrimidin-2-yl)amino)pyridin-3-yl)methyl)piperidin-1-yl)acetyl)piperidin-4-yl)amino)-N-(6-(dimethylamino)pyridazin-3-yl)-6-(isopropylamino)nicotinamide] | > 100 nM
CC(=O)c1c(C)c2cnc(Nc3ccc(N4CCC5(CC4)CC5C(=O)NC4CC(Nc5nc(NC(C)C)ccc5C(=O)Nc5ccc(N(C)C)nn5)C4)cn3)nc2n(C2CCCC2)c1=O (stereo not drawn) [CPD-413, 6-(6-((6-acetyl-8-cyclopentyl-5-methyl-7-oxo-7,8-dihydropyrido[2,3-d]pyrimidin-2-yl)amino)pyridin-3-yl)-N-(3-((3-((6-(dimethylamino)pyridazin-3-yl)carbamoyl)-6-(isopropylamino)pyridin-2-yl)amino)cyclobutyl)-6-azaspiro[2.5]octane-1-carboxamide] | > 100 nM
[2H]C([2H])([2H])Nc1ccc(C(=O)Nc2ccc(N(C)C)nn2)c(NC2CC(NC(=O)CN3CCC4(CCN(c5ccc(Nc6ncc7c(C)c(C(C)=O)c(=O)n(C8CCCC8)c7n6)nc5)C4)C3)C2)n1 (stereo not drawn) [CPD-450, 2-((3-(2-(7-(6-((6-acetyl-8-cyclopentyl-5-methyl-7-oxo-7,8-dihydropyrido[2,3-d]pyrimidin-2-yl)amino)pyridin-3-yl)-2,7-diazaspiro[4.4]nonan-2-yl)acetamido)cyclobutyl)amino)-N-(6-(dimethylamino)pyridazin-3-yl)-6-((methyl-d3)amino)nicotinamide] | < 50 nM
[2H]C([2H])([2H])Nc1ccc(C(=O)Nc2ccc(N(C)C)nn2)c(NC2CC(CNC(=O)CN3CCC4(CCN(c5ccc(Nc6ncc7c(C)c(C(C)=O)c(=O)n(C8CCCC8)c7n6)nc5)C4)C3)C2)n1 (stereo not drawn) [CPD-445, 2-((3-((2-(7-(6-((6-acetyl-8-cyclopentyl-5-methyl-7-oxo-7,8-dihydropyrido[2,3-d]pyrimidin-2-yl)amino)pyridin-3-yl)-2,7-diazaspiro[4.4]nonan-2-yl)acetamido)methyl)cyclobutyl)amino)-N-(6-(dimethylamino)pyridazin-3-yl)-6-((methyl-d3)amino)nicotinamide] | < 50 nM
CC(=O)c1c(C)c2cnc(Nc3ccc(N4CCN(CC(=O)N5CCC(Nc6nc(NC(C)C)ccc6C(=O)Nc6cc(C)on6)CC5)CC4)cn3)nc2n(C2CCCC2)c1=O [CPD-290, 2-((1-(2-(4-(6-((6-acetyl-8-cyclopentyl-5-methyl-7-oxo-7,8-dihydropyrido[2,3-d]pyrimidin-2-yl)amino)pyridin-3-yl)piperazin-1-yl)acetyl)piperidin-4-yl)amino)-6-(isopropylamino)-N-(5-methylisoxazol-3-yl)nicotinamide] | > 100 nM
CC(=O)c1c(C)c2cnc(Nc3ccc(N4CCN(C5CCN(C(=O)C6CC7(CC(Nc8nc(NC(C)C)ccc8C(=O)Nc8ccc(N(C)C)nn8)C7)C6)C5)CC4)cn3)nc2n(C2CCCC2)c1=O (stereo not drawn) [CPD-400, 2-((6-(3-(4-(6-((6-acetyl-8-cyclopentyl-5-methyl-7-oxo-7,8-dihydropyrido[2,3-d]pyrimidin-2-yl)amino)pyridin-3-yl)piperazin-1-yl)pyrrolidine-1-carbonyl)spiro[3.3]heptan-2-yl)amino)-N-(6-(dimethylamino)pyridazin-3-yl)-6-(isopropylamino)nicotinamide] | 50 to 100 nM
CC(=O)c1c(C)c2cnc(Nc3ccc(N4CCN(C(C)CC(=O)NC5CC(Nc6nc(NC(C)C)ccc6C(=O)Nc6ccc(N(C)C)nn6)C5)CC4)cn3)nc2n(C2CCCC2)c1=O (stereo not drawn) [CPD-365, 2-((3-(3-(4-(6-((6-acetyl-8-cyclopentyl-5-methyl-7-oxo-7,8-dihydropyrido[2,3-d]pyrimidin-2-yl)amino)pyridin-3-yl)piperazin-1-yl)butanamido)cyclobutyl)amino)-N-(6-(dimethylamino)pyridazin-3-yl)-6-(isopropylamino)nicotinamide] | < 50 nM
CNc1ccc(C(=O)Nc2ccc(N(C)C)nn2)c(NC2CC3(C2)CN(C(=O)C2CC(N4CCN(c5ccc(Nc6ncc7c(C)c(C(C)=O)c(=O)n(C8CCCC8)c7n6)nc5)CC4)C2)C3)n1 (stereo not drawn) [CPD-348, 2-((2-(3-(4-(6-((6-acetyl-8-cyclopentyl-5-methyl-7-oxo-7,8-dihydropyrido[2,3-d]pyrimidin-2-yl)amino)pyridin-3-yl)piperazin-1-yl)cyclobutane-1-carbonyl)-2-azaspiro[3.3]heptan-6-yl)amino)-N-(6-(dimethylamino)pyridazin-3-yl)-6-(methylamino)nicotinamide] | > 100 nM
CCNc1ccc(C(=O)Nc2cn(C)c(C3CC3)n2)c(NC2CC3(CC(NC(=O)CN4CCN(c5ccc(Nc6ncc7c(C)c(C(C)=O)c(=O)n(C8CCCC8)c7n6)nc5)CC4)C3)C2)n1 (stereo not drawn) [CPD-293, 2-((6-(2-(4-(6-((6-acetyl-8-cyclopentyl-5-methyl-7-oxo-7,8-dihydropyrido[2,3-d]pyrimidin-2-yl)amino)pyridin-3-yl)piperazin-1-yl)acetamido)spiro[3.3]heptan-2-yl)amino)-N-(2-cyclopropyl-1-methyl-1H-imidazol-4-yl)-6-(ethylamino)nicotinamide] | > 100 nM
CC(=O)c1c(C)c2cnc(Nc3ccc(N4CCN(CC(=O)NC5CC6(C5)CC(Nc5nc(NC(C)C)ccc5C(=O)Nc5cc7n(n5)CCC7)C6)CC4)cn3)nc2n(C2CCCC2)c1=O (stereo not drawn) [CPD-440, 2-((6-(2-(4-(6-((6-acetyl-8-cyclopentyl-5-methyl-7-oxo-7,8-dihydropyrido[2,3-d]pyrimidin-2-yl)amino)pyridin-3-yl)piperazin-1-yl)acetamido)spiro[3.3]heptan-2-yl)amino)-N-(5,6-dihydro-4H-pyrrolo[1,2-b]pyrazol-2-yl)-6-(isopropylamino)nicotinamide] | < 50 nM
CNc1ccc(C(=O)Nc2ccc(N(C)C)nn2)c(NC2CC(C(=O)N3CC(N4CCN(c5ccc(Nc6ncc7c(C)c(C(C)=O)c(=O)n(C8CCCC8)c7n6)nc5)CC4)C3)C2)n1 (stereo not drawn) [CPD-332, 2-((3-(3-(4-(6-((6-acetyl-8-cyclopentyl-5-methyl-7-oxo-7,8-dihydropyrido[2,3-d]pyrimidin-2-yl)amino)pyridin-3-yl)piperazin-1-yl)azetidine-1-carbonyl)cyclobutyl)amino)-N-(6-(dimethylamino)pyridazin-3-yl)-6-(methylamino)nicotinamide] | > 100 nM
[2H]C([2H])([2H])Nc1ccc(C(=O)Nc2ccc(N(C)C)nn2)c(NC2CN(C(=O)CN3CCC4(CCN(c5ccc(Nc6ncc7c(C)c(C(C)=O)c(=O)n(C8CCCC8)c7n6)nc5)C4)C3)C2)n1 (stereo not drawn) [CPD-442, 2-((1-(2-(7-(6-((6-acetyl-8-cyclopentyl-5-methyl-7-oxo-7,8-dihydropyrido[2,3-d]pyrimidin-2-yl)amino)pyridin-3-yl)-2,7-diazaspiro[4.4]nonan-2-yl)acetyl)azetidin-3-yl)amino)-N-(6-(dimethylamino)pyridazin-3-yl)-6-((methyl-d3)amino)nicotinamide] | > 100 nM
CC(=O)c1c(C)c2cnc(Nc3ccc(N4CCN(CC(=O)NC5CC6(C5)CC(Nc5cc(F)ccc5C(=O)Nc5cc(C)on5)C6)CC4)cn3)nc2n(C2CCCC2)c1=O (stereo not drawn) [CPD-260, 2-((6-(2-(4-(6-((6-acetyl-8-cyclopentyl-5-methyl-7-oxo-7,8-dihydropyrido[2,3-d]pyrimidin-2-yl)amino)pyridin-3-yl)piperazin-1-yl)acetamido)spiro[3.3]heptan-2-yl)amino)-4-fluoro-N-(5-methylisoxazol-3-yl)benzamide] | > 100 nM
CC(=O)c1c(C)c2cnc(Nc3ccc(N4CCN(CC(=O)NC(C)C5CC(Nc6nc(NC(C)C)ccc6C(=O)Nc6cc(C)on6)C5)CC4)cn3)nc2n(C2CCCC2)c1=O (stereo not drawn) [CPD-377, 2-((3-(1-(2-(4-(6-((6-acetyl-8-cyclopentyl-5-methyl-7-oxo-7,8-dihydropyrido[2,3-d]pyrimidin-2-yl)amino)pyridin-3-yl)piperazin-1-yl)acetamido)ethyl)cyclobutyl)amino)-6-(isopropylamino)-N-(5-methylisoxazol-3-yl)nicotinamide] | 50 to 100 nM
CC(=O)c1c(C)c2cnc(Nc3ccc(CN4CCC(CC(=O)N5CCC(Nc6nc(NC(C)C)ccc6C(=O)Nc6ccc(N(C)C)nn6)CC5)CC4)cn3)nc2n(C2CCCC2)c1=O [CPD-392, 2-((1-(2-(1-((6-((6-acetyl-8-cyclopentyl-5-methyl-7-oxo-7,8-dihydropyrido[2,3-d]pyrimidin-2-yl)amino)pyridin-3-yl)methyl)piperidin-4-yl)acetyl)piperidin-4-yl)amino)-N-(6-(dimethylamino)pyridazin-3-yl)-6-(isopropylamino)nicotinamide] | > 100 nM
CC(=O)c1c(C)c2cnc(Nc3ccc(C4CCC(NCC(=O)N5CCC(Nc6nc(NC(C)C)ccc6C(=O)Nc6ccc(N(C)C)nn6)CC5)CC4)cn3)nc2n(C2CCCC2)c1=O (stereo not drawn) [CPD-389, 2-((1-((4-(6-((6-acetyl-8-cyclopentyl-5-methyl-7-oxo-7,8-dihydropyrido[2,3-d]pyrimidin-2-yl)amino)pyridin-3-yl)cyclohexyl)glycyl)piperidin-4-yl)amino)-N-(6-(dimethylamino)pyridazin-3-yl)-6-(isopropylamino)nicotinamide] | > 100 nM
CC(=O)c1c(C)c2cnc(Nc3ccc(N4CC5(CN(CC(=O)N6CCC(Nc7nc(NC(C)C)ccc7C(=O)Nc7ccc(N(C)C)nn7)C6)C5)C4)cn3)nc2n(C2CCCC2)c1=O (stereo not drawn) [CPD-424, 2-((1-(2-(6-(6-((6-acetyl-8-cyclopentyl-5-methyl-7-oxo-7,8-dihydropyrido[2,3-d]pyrimidin-2-yl)amino)pyridin-3-yl)-2,6-diazaspiro[3.3]heptan-2-yl)acetyl)pyrrolidin-3-yl)amino)-N-(6-(dimethylamino)pyridazin-3-yl)-6-(isopropylamino)nicotinamide] | > 100 nM
